Data set [1] can be described thus: Ames test, Salmonella mutagenicity, TA98. The conditions noted are these: for Revertant Colonies/Plate, Mean ± SD: n = 3.
In data set [2] the test system is Salmonella typhimurium TA100. On the procedure: The substance was tested at 3000, 300, 30 and 3 μg/plate for possible activity to induce reversion of mutations at the histidine loci of two His-auxotrophic strains of Salmonella typhimurium: TA98 and TA100. Reverse mutation of the strains to histidine (His+) prototrophy is detected as growth on minimal medium that is deficient for histidine. In this assay, induction of reversion (positive mutagenicity) is indicated by 3-fold increase in the reversion frequency of compound treated groups compared to the spontaneous reversion of the vehicle control group. Colonies counts ≤50% of the vehicle control indicated cytotoxicity.
Two Salmonella typhimurium strains (TA98 and TA100) were obtained from Dr. Bruce N. Ames, University of California, Berkeley, USA as summarized in Table 8.
Test strains were obtained from the frozen working stock and thawed at room temperature. A 0.2 mL aliquot was inoculated into 25 mL nutrient broth medium and then incubated at 35-37° C. with shaking (120 rpm) for 16-18 hr. Test substance was dissolved in DMSO with 10-fold dilutions to obtain 4 stock concentrations at 30,000, 3,000, 300 and 30 μg/mL. […] A 0.1 mL aliquot of test substance stock solution was combined with 0.1 mL strain culture and with 0.5 mL rat liver enzyme homogenate (S9) mixture or 0.5 mL PBS, and then the mixture was incubated at 35-37° C. with shaking (120 rpm) for 20 min. Molten top agar (2 mL containing 0.05 mM histidine and 0.05 mM biotin) was added, and then the mixture was poured onto the surface of a minimal glucose agar plate (30 mL of bottom agar per petri plate) to obtain final test concentrations at 3000, 300, 30 and 3 μg/plate. The plates were incubated at 37° C. for 72 hours, and then the numbers of His+ revertant colonies were counted. Treatments resulting in a three-fold increase (≥3×) in revertant colonies compared to the vehicle control were considered mutagenic. Treatments that reduce the colony counts to ≤50% of the vehicle control were considered cytotoxic. Assays were performed in triplicate.

The record followed here is US20190218214A1, “Inhibition of BMP Signaling Compounds, Compositions and Uses Thereof” (Vanderbilt University, priority 2016, published 2019).

Several values for one entry are separate records, joined by “and”; a condition that tells them apart may be missing. Equal values may be shown once. Read-outs that look alike come from different tables or passages of the source.

Turning to `Nc1ccc([N+](=O)[O-])cc1N` [Compound 4-NPD, 4-Nitro-o-phenylenediamine], in data set [1] (S9 (−), 30 μg/plate), the “Revertant Colonies/Plate, Individual” value is 1128 Revertant Colonies/Plate and 1344 Revertant Colonies/Plate and 960 Revertant Colonies/Plate; the “Revertant Colonies/Plate, Mean ± SD” value is listed as 1144 ± 192 Revertant Colonies/Plate.

`[N-]=[N+]=[N-]` [Sodium Azide, Sodium azide]: the “Revertant Colonies/Plate, Individual” value in data set [2] (TA100, S9 (−), 3 μg/plate) is 1160 Revertant Colonies/Plate and 1120 Revertant Colonies/Plate and 944 Revertant Colonies/Plate. Moreover, the “Revertant Colonies/Plate, Mean ± SD” value in data set [2] (TA100, S9 (−), 3 μg/plate, n = 3) worked out at 1075 ± 115 Revertant Colonies/Plate.

Turning to `Nc1ccc2cc3ccccc3cc2c1` [Compound 2-Anthramine, 2-Aminoanthracene], the “Revertant Colonies/Plate, Mean ± SD” value in data set [2] (Salmonella typhimurium) is reported as 6672 ± 545 Revertant Colonies/Plate. In addition, in data set [1] (S9 (+), 3 μg/plate), the “Revertant Colonies/Plate, Individual” value is 7616 Revertant Colonies/Plate and 6096 Revertant Colonies/Plate and 7648 Revertant Colonies/Plate; the “Revertant Colonies/Plate, Mean ± SD” value is 7120 ± 887 Revertant Colonies/Plate.
